Results on eleven compounds are retold here after ChEMBL document CHEMBL1926678, “Synthesis and bio-evaluation of human macrophage migration inhibitory factor inhibitor to develop anti-inflammatory agent” (Bioorg Med Chem, 2011).

Calls of active or inactive are those of the source. The calls are words filed in the database; no cut-off is given here.

In series [1] the target is T1, Macrophage migration inhibitory factor (Homo sapiens, UniProt P14174).
T1 sequence (P14174 whole entry): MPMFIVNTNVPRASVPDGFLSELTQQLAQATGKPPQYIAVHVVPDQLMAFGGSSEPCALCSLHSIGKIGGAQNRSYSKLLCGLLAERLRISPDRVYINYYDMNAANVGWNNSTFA
The series is described as follows: Inhibition of human cloned MIF tautomerase activity expressed in Escherichia coli assessed as conversion of L-dopachrome methyl ester to indolecarboxylic acid methyl ester measured for 20 secs.

Series [2] has as its target Macrophage migration inhibitory factor (Mus musculus) (UniProt P34884). The series is described as follows: Inhibition of MIF-induced nitric oxide production in mouse RAW264.7 cells at 50 uM pretreatment by Griess assay. Type of series: cell-based. For orientation: The Griess reaction detects nitrite, a stable product of nitric oxide.
Series [3] has the same target. The series is described as follows: Inhibition of MIF-induced NF-kappaB nuclear translocation in mouse RAW264.7 cells assessed as reduction in complex formation pretreated for 30 mins measured after 4 hrs by electrophoretic mobility shift assay. The format is cell-based. In general terms: In EMSA bound probe runs differently from free probe, usually more slowly.
A further series relates to RAW264.7. The series is described as follows: Cytotoxicity against mouse RAW264.7 cells assessed as cell viability at 200 uM after 24 hrs by MTT assay. Type of series: cell-based. The settings on record: raw264.7, 24 h.
The target in series [4] is Macrophage migration inhibitory factor (Mus musculus) (UniProt P34884). In words: Inhibition of MIF-induced NF-kappaB nuclear translocation in mouse RAW264.7 cells assessed as inhibition of iNOS expression at 50 uM pretreated for 30 mins measured after 24 hrs by fluorescence spectrophotometry. Type of series: cell-based.
Macrophage migration inhibitory factor (Mus musculus), sequence (P34884 2-115 limits assumed): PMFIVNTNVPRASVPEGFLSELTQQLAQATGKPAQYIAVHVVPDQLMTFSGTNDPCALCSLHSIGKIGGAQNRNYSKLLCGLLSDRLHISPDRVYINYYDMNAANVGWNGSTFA
Series [5] can be described thus: Cytotoxicity against rat gastric mucosal cells assessed as cell viability at 200 uM after 24 hrs by MTT assay. The format is cell-based, Gastric mucosa.
The target in series [6] is Macrophage migration inhibitory factor (Mus musculus) (UniProt P34884). In words: Inhibition of MIF-induced NF-kappaB nuclear translocation in mouse RAW264.7 cells assessed as reduction in complex formation at 40 to 80 uM pretreated for 30 mins measured after 4 hrs by electrophoretic mobility shift assay. Type of series: cell-based.
Series [7] has the same target. The series is described as follows: Inhibition of MIF-induced NF-kappaB nuclear translocation in mouse RAW264.7 cells at 100 uM pretreated for 30 mins before […] stimulation measured after 2 hrs by autoradiography. Type of series: cell-based.

As to `COc1ccc(C2=NOC(C(C)=O)C2)cc1OC` (configuration not stated), the 50% inhibitory concentration (IC50) in series [1] worked out at 35.4 µM.
For the compound `CCCCOC(=O)CC1CC(c2ccc(OC)cc2)=NO1` (configuration not stated), in series [1], the 50% inhibitory concentration (IC50) was 11.2 µM.
In the case of `COc1ccc(C2=NOC(CC(=O)Oc3cc(C)ccc3C(C)C)C2)cc1` (configuration not stated), in series [1], the concentration for half-maximal inhibition (IC50) is 55.3 µM.
`COc1cc(C2=NOC(COc3ccc(C=O)cc3)C2)ccc1O` (configuration not stated): the inhibition entry in series [2] and in series [4] was “Active” each time. For the same compound, the figures for the inhibition result in series [3] and in series [6] were “Dose-dependent effect” and 100%, respectively. Further, the Activity entry (in the series with RAW264.7; in series [5]) was “Non-toxic” each time. Also, the half-maximal inhibitory concentration (IC50) in series [1] is 7.3 µM.
For the compound `COC(=O)CC1CC(c2ccc(OC(=O)CC3CC(c4ccc(OC)cc4)=NO3)cc2)=NO1` (configuration not stated), the IC50 in series [1] is 37.2 µM.
As for `COc1ccc(C2=NOC(CC(=O)O)C2)cc1` (configuration not stated), the half-maximal inhibitory concentration (IC50) in series [1] worked out at 16.7 µM.
Turning to `O=C(O)CC1CC(c2ccc(O)cc2)=NO1` (configuration not stated), in series [1], the concentration for half-maximal inhibition (IC50) turned out to be 15.2 µM.
Regarding `COC(=O)CC1CC(c2ccc(OC)cc2)=NO1` (configuration not stated), the 50% inhibitory concentration (IC50) in series [1] came out at 19.7 µM.
On to `COc1cc(C2=NOC(CC(=O)O)C2)ccc1O` (configuration not stated), for which, in series [1], the IC50 turned out to be 10.2 µM.
As to `COC(=O)C1CC(c2ccc(OC)c(OC)c2)=NO1` (configuration not stated), the 50% inhibitory concentration (IC50) in series [1] was 25.2 µM.
Turning to `COC(=O)CC1CC(c2ccc(O)cc2)=NO1` (racemic), the inhibition in series [7] is 70%.

As a reminder, the IC50 is the point on the concentration scale where inhibition reaches its midpoint. In general, inhibition refers to the percentage by which the read-out fell short of the control.
